In patent US20120258980A1, “Antibacterial Agent for Drug-Resistant Bacteria, Method for Screening for Same, and Use of Same” (priority 2009, published 2012):
Converted amounts (≈) assume the structure as drawn. Counter-ions that a name gives are not always drawn. Like-named read-outs stand apart in the source and are kept apart here.

How the values were obtained:
[1] = test system: MRSA, CA-MRSA and MSSA of Staphylococcus aureus; assay: MIC measurement, Test Example 4 (MRSA, CA-MRSA and MSSA strains); type: cell-based; conditions: Staphylococcus aureus
Method in brief: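 S. aureus strains (FDA209P control) grown overnight in TSB at 37° C, resuspended in CAMHB, adjusted to A578 0.3 and diluted 500-fold. Equal volume added to CAMHB with serial compound concentrations, incubated statically overnight at 37° C. MIC read visually as lowest concentration without turbidity.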

[2] = test system: VRSA clinical isolates; assay: microbe, parasite or virus in culture; type: cell-based; conditions: Staphylococcus aureus
Experimental: Each of the bacterial strains listed in Table 1-1 was shake-cultured at 37° C. overnight in 4 mL of a medium (Tryptical Soy Broth: TSB, product of Becton Dickinson and Company). FDA209P was used as a control.
After completion of culturing, the resultant culture was suspended in a cation-adjusted Mueller Hinton Broth (CAMHB, product of Becton Dickinson and Company). Then, the obtained bacterial culture was adjusted in absorbance with the CAMHB so that the absorbance at 578 nm of the bacterial culture was adjusted to 0.3 measured by an absorption spectrometer. In addition, the resultant bacterial culture was 500-fold diluted with the CAMHB.
Each of the 500-fold diluted, pre-cultured bacterial cultures was added at 50 μL/well to the CAMHB containing the quinolones and the nybomycins at various concentrations (50 μL/well), followed by statically culturing at 37° C. overnight.
After completion of culturing, the growth of the bacteria was visually determined based on turbidity to measure MIC in each bacterial strain.
Here, the glycopeptides used were VCM and TEIC. The β-lactam used was OXA.

[3] = test system: methicillin-susceptible S. aureus (MSSA), MRSA and mutants thereof; assay: MIC measurement, Test Example 3 (MSSA, MRSA and sequential gyrA/grlA quinolone-resistant mutants); type: cell-based, Staphylococcus aureus; conditions: Staphylococcus aureus
Method in brief: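 Clinical isolates and stepwise gyrA/grlA quinolone-resistant mutants grown overnight at 37° C in TSB, adjusted to A578 0.3 in CAMHB, diluted 500-fold and mixed 1:1 with drug dilutions in CAMHB.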

[4] = test system: Enterococcus faecalis; assay: MIC measurement, Test Example 6 (enterococcus); type: cell-based; conditions: Enterococcus faecalis, read-out: MIC
Method in brief: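 E. faecalis strains, including vancomycin-resistant NCTC12201 and NCTC12203, pre-grown overnight in TSB at 37° C, set to A578 0.3 in CAMHB, then diluted 500-fold.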

[5] = ATCC 29213 / MRSA / MSSA, ATCC 29213, MSSA
[6] = FDA209P / MRSA / MSSA, FDA209P, MSSA
[7] = MRSA / MSSA / NCTC 8325, NCTC 8325, MSSA
[8] = MRSA / MSSA / USA300, USA300 FPR3757, CA-MRSA
[9] = FDA209P / MRSA / MSSA, FDA209P (MSSA), control, read-out: MIC
[10] = MR5867 (MRSA), clinical isolate parent strain, no mutation
[11] = MS5935-1, first-step quinolone-resistant mutant, grlA S80F
[12] = MS5935-3, third-step mutant, further grlA E84K
[13] = E. faecalis 36-15672, quinolone-susceptible enterococci
[14] = E. faecalis 36-15673, quinolone-susceptible enterococci
[15] = E. faecalis 36-15678, quinolone-susceptible enterococci
[16] = E. faecalis 36-15686, quinolone-resistant enterococci
[17] = E. faecalis 36-15688, quinolone-susceptible enterococci
[18] = E. faecalis 36-15694, quinolone-resistant enterococci
[19] = E. faecalis 36-15696, quinolone-susceptible enterococci
[20] = E. faecalis 36-15703, quinolone-resistant enterococci
[21] = E. faecalis 36-15716, quinolone-resistant enterococci
[22] = E. faecalis 36-15718, quinolone-susceptible enterococci
[23] = E. faecalis 36-15720, quinolone-susceptible enterococci
[24] = E. faecalis 36-15722, quinolone-resistant enterococci
[25] = E. faecalis 36-15726, quinolone-resistant enterococci
[26] = E. faecalis 36-15730, quinolone-susceptible enterococci
[27] = E. faecalis 36-15736, quinolone-susceptible enterococci
[28] = E. faecalis 36-15741, quinolone-susceptible enterococci
[29] = NCTC 12201 / VRE, E. faecalis NCTC12201, vancomycin-resistant (VRE), quinolone-susceptible enterococci
[30] = NCTC 12203 / VRE, E. faecalis NCTC12203, vancomycin-resistant (VRE), quinolone-susceptible enterococci

C[C@@H]1CN(c2c(F)c(N)c3c(=O)c(C(=O)O)cn(C4CC4)c3c2F)C[C@H](C)N1 [SPFX, sparfloxacin]
MIC [1, 5]: ≤ 0.063 µg/mL
MIC ([1]; COL, MRSA): 0.25 µg/mL (≈ 0.637 µM)
MIC [1, 6]: ≤ 0.063 µg/mL
MIC ([1]; ISA12-1, MRSA): 0.125 µg/mL (≈ 0.319 µM)
MIC ([1]; ISA12-2, MRSA): 0.125 µg/mL (≈ 0.319 µM)
MIC ([1]; ISA35-1, MRSA): 0.125 µg/mL (≈ 0.319 µM)
MIC ([1]; ISA37-1, MSSA): 0.125 µg/mL (≈ 0.319 µM)
MIC ([1]; ISA49-1, MSSA): ≤ 0.063 µg/mL
MIC ([1]; ISA51-1, MSSA): 0.125 µg/mL (≈ 0.319 µM)
MIC ([1]; ISA56-3, MRSA): 0.125 µg/mL (≈ 0.319 µM)
MIC ([1]; ISA58-1, MRSA): 0.5 µg/mL (≈ 1.27 µM)
MIC ([1]; ISA62-1, MRSA): ≤ 0.063 µg/mL
MIC ([1]; ISA73-1, MSSA): ≤ 0.063 µg/mL
MIC ([1]; KBSA32, MRSA): ≤ 0.063 µg/mL
MIC ([1]; KBSA34, MRSA): 0.125 µg/mL (≈ 0.319 µM)
MIC ([1]; KBSA72, MRSA): 128 µg/mL (≈ 326 µM)
MIC ([1]; KBSA96, MRSA): 16 µg/mL (≈ 40.8 µM)
MIC ([1]; KBSA171, MRSA): 16 µg/mL (≈ 40.8 µM)
MIC ([1]; KSA24, MRSA): 16 µg/mL (≈ 40.8 µM)
MIC ([1]; KSA31, MRSA): 8 µg/mL (≈ 20.4 µM)
MIC ([1]; KSA36, MRSA): 128 µg/mL (≈ 326 µM)
MIC [1, 7]: 0.125 µg/mL (≈ 0.319 µM)
MIC [1, 8]: 8 µg/mL (≈ 20.4 µM)
MIC ([1]; MW2, CA-MRSA): ≤ 0.063 µg/mL
MIC ([1]; N315, MRSA): ≤ 0.063 µg/mL
MIC ([2]; VRS1, VRSA, Michigan): 8 µg/mL (≈ 20.4 µM)
MIC ([2]; VRS2, VRSA, Pennsylvania): 8 µg/mL (≈ 20.4 µM)
MIC ([2]; VRS3, VRSA, New York): 16 µg/mL (≈ 40.8 µM)
MIC ([2]; VRS4, VRSA, New York): 16 µg/mL (≈ 40.8 µM)
MIC ([2]; VRS5, VRSA, Michigan): 128 µg/mL (≈ 326 µM)
MIC ([2]; VRS6, VRSA, Michigan): 16 µg/mL (≈ 40.8 µM)
MIC ([2]; VRS7, VRSA, Michigan): 16 µg/mL (≈ 40.8 µM)
MIC [3, 9]: ≤ 0.063 µg/mL
MIC [3, 10]: ≤ 0.063 µg/mL
MIC ([3]; MR5867-1, first-step quinolone-resistant mutant, grlA E84K): ≤ 0.063 µg/mL
MIC ([3]; MS5935 (MSSA), clinical isolate parent strain, no mutation, read-out: MIC): ≤ 0.063 µg/mL
MIC [3, 11]: ≤ 0.063 µg/mL
MIC [3, 12]: 32 µg/mL (≈ 81.5 µM)
MIC ([3]; MS5952 (MSSA), clinical isolate parent strain, no mutation, read-out: MIC): ≤ 0.063 µg/mL
MIC [4, 13]: 1 µg/mL (≈ 2.55 µM)
MIC [4, 14]: 1 µg/mL (≈ 2.55 µM)
MIC [4, 15]: 0.5 µg/mL (≈ 1.27 µM)
MIC [4, 16]: 128 µg/mL (≈ 326 µM)
MIC [4, 17]: 0.5 µg/mL (≈ 1.27 µM)
MIC [4, 18]: 64 µg/mL (≈ 163 µM)
MIC [4, 19]: 0.5 µg/mL (≈ 1.27 µM)
MIC [4, 20]: 32 µg/mL (≈ 81.5 µM)
MIC [4, 21]: 64 µg/mL (≈ 163 µM)
MIC [4, 22]: 0.5 µg/mL (≈ 1.27 µM)
MIC [4, 23]: 1 µg/mL (≈ 2.55 µM)
MIC [4, 24]: 64 µg/mL (≈ 163 µM)
MIC [4, 25]: 64 µg/mL (≈ 163 µM)
MIC [4, 26]: 1 µg/mL (≈ 2.55 µM)
MIC [4, 27]: 0.5 µg/mL (≈ 1.27 µM)
MIC [4, 28]: 1 µg/mL (≈ 2.55 µM)
MIC [4, 29]: 0.5 µg/mL (≈ 1.27 µM)
MIC [4, 30]: 0.5 µg/mL (≈ 1.27 µM)

NC1CCN(c2nc3c(cc2F)c(=O)c(C(=O)O)cn3-c2ccc(F)cc2F)C1 (centres unmarked) [TFLX, tosufloxacin tosylate]
MIC [1, 5]: ≤ 0.063 µg/mL
MIC ([1]; COL, MRSA): 0.125 µg/mL
MIC [1, 6]: ≤ 0.063 µg/mL
MIC ([1]; ISA12-1, MRSA): ≤ 0.063 µg/mL
MIC ([1]; ISA12-2, MRSA): ≤ 0.063 µg/mL
MIC ([1]; ISA35-1, MRSA): 0.25 µg/mL
MIC ([1]; ISA37-1, MSSA): ≤ 0.063 µg/mL
MIC ([1]; ISA49-1, MSSA): ≤ 0.063 µg/mL
MIC ([1]; ISA51-1, MSSA): ≤ 0.063 µg/mL
MIC ([1]; ISA56-3, MRSA): ≤ 0.063 µg/mL
MIC ([1]; ISA58-1, MRSA): 0.5 µg/mL
MIC ([1]; ISA62-1, MRSA): ≤ 0.063 µg/mL
MIC ([1]; ISA73-1, MSSA): ≤ 0.063 µg/mL
MIC ([1]; KBSA32, MRSA): ≤ 0.063 µg/mL
MIC ([1]; KBSA34, MRSA): ≤ 0.063 µg/mL
MIC ([1]; KBSA72, MRSA): > 128 µg/mL
MIC ([1]; KBSA96, MRSA): 16 µg/mL
MIC ([1]; KBSA171, MRSA): 8 µg/mL
MIC ([1]; KSA24, MRSA): 8 µg/mL
MIC ([1]; KSA31, MRSA): 4 µg/mL
MIC ([1]; KSA36, MRSA): > 128 µg/mL
MIC [1, 7]: ≤ 0.063 µg/mL
MIC [1, 8]: 16 µg/mL
MIC ([1]; MW2, CA-MRSA): ≤ 0.063 µg/mL
MIC ([1]; N315, MRSA): ≤ 0.063 µg/mL
MIC ([2]; VRS1, VRSA, Michigan): 4 µg/mL
MIC ([2]; VRS2, VRSA, Pennsylvania): > 128 µg/mL
MIC ([2]; VRS3, VRSA, New York): > 128 µg/mL
MIC ([2]; VRS4, VRSA, New York): > 128 µg/mL
MIC ([2]; VRS5, VRSA, Michigan): > 128 µg/mL
MIC ([2]; VRS6, VRSA, Michigan): > 128 µg/mL
MIC ([2]; VRS7, VRSA, Michigan): 4 µg/mL
MIC [3, 9]: ≤ 0.063 µg/mL
MIC [3, 10]: ≤ 0.063 µg/mL
MIC ([3]; MR5867-3, third-step mutant, further grlA S80F): > 128 µg/mL
MIC ([3]; MR5867-4, fourth-step mutant, further gyrA E88K): > 128 µg/mL
MIC [3, 11]: 1 µg/mL
MIC ([3]; MS5935-2, second-step mutant, further gyrA S84L): 64 µg/mL
MIC [3, 12]: > 128 µg/mL
MIC ([3]; MS5952-1, first-step quinolone-resistant mutant, grlA S80Y): 2 µg/mL
MIC ([3]; MS5952-3, third-step mutant, further grlA A116V): > 128 µg/mL
MIC [4, 13]: 0.5 µg/mL
MIC [4, 14]: 0.5 µg/mL
MIC [4, 15]: 0.5 µg/mL
MIC [4, 16]: > 128 µg/mL
MIC [4, 17]: ≤ 0.063 µg/mL
MIC [4, 18]: > 128 µg/mL
MIC [4, 19]: 0.25 µg/mL
MIC [4, 20]: > 128 µg/mL
MIC [4, 21]: > 128 µg/mL
MIC [4, 22]: 0.25 µg/mL
MIC [4, 23]: 0.5 µg/mL
MIC [4, 24]: > 128 µg/mL
MIC [4, 25]: > 128 µg/mL
MIC [4, 26]: 0.5 µg/mL
MIC [4, 27]: 0.25 µg/mL
MIC [4, 28]: 0.5 µg/mL
MIC [4, 29]: 0.25 µg/mL
MIC [4, 30]: 0.5 µg/mL
